Reference: publication PMC6934184, “Selective DNA-PKcs inhibition extends the therapeutic index of localized radiotherapy and chemotherapy” (The Journal of Clinical Investigation, 2019)

Biological target: T1, ACVR1 (ALK2) R206H (Homo sapiens, UniProt Q04771, R206H)
T1 construct: purchased Thermo Fisher Scientific (Life Technologies) SelectScreen
Assay: SelectScreen LanthaScreen
Type: binding
Details: read-out: % displacement
Outline: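 SelectScreen broad panel; activity (Z'LYTE, Adapta) plus binding formats. ATP: Km app for CSF1R Z'LYTE; 10 for CAMK1 Adapta. Readout = % per kinase.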

T1 sequence (Q04771 21-509 R206H): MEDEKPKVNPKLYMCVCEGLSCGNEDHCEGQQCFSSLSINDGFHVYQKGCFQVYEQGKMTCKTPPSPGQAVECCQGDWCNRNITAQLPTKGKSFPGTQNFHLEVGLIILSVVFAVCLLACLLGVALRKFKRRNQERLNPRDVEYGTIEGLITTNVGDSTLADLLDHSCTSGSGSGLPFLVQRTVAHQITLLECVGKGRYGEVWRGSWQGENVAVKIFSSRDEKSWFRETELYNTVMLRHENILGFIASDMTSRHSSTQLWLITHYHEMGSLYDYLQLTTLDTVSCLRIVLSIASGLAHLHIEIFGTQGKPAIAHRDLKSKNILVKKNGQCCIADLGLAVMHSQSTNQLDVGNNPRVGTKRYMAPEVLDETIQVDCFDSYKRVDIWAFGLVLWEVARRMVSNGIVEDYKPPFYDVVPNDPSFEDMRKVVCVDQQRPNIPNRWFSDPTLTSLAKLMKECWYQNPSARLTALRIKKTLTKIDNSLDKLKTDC

Question: With `CN(C(=O)CN1CCOCC1)c1ccc2sc3c(-c4cccc5c(=O)cc(N6CC7CCC(C6)O7)oc45)cccc3c2c1` [NU5455] as the compound, how does the inhibition at 1 µM read?
Answer: 12.6%
